The record followed here is EP0101234A1, “Therapeutic agent” (The Boots Company PLC, priority 1982, dated 1984).

A word on the inhibition: it is how much of the control response was suppressed.

The structures appear in SMILES notation. Where a name gives a salt, the structure may show the parent alone. Read-outs that look alike come from different tables or passages of the source.

This assay deals with uptake systems for 5HT in the brain. Put plainly: in vivo inhibition of p-chloroamphetamine-induced depletion of brain 5HT. Also noted: species or system Charles River CD rats. To be noted: Rattus norvegicus, read-out: percentage inhibition of depletion (Ib). The method, then: Once inside the neuron the depletor agent displaces the amine transmitter from its storage sites into the cytoplasm of the cell where it is metabolised by monoamine oxidase. […] The levels of the amine transmitter are preserved by pretreatment of the uptake sites with an uptake inhibitor. […] After 30 minutes a solution of p-chloroamphetamine in. distilled water was injected intraperitoneally at a dose of 5 mg/kg. After a further four hours the animals were sacrificed and the 5HT level in the brain determined fluorometrically.
The 5HT level in the brain was also determined in Control animals which received only vehicle solutions and for animals which received vehicle orally instead of the test compound followed by intraperitoneal injections of the depleting agent. These latter animals are referred to herein as depleted controls. The percentage inhibition. of depletion (Ib) was calculated using the formula

Where [1] appears, read: rats, 30 mg/kg orally, p-chloroamphetamine 5 mg/kg i.p. after 30 minutes, brain 5HT level after a further four hours.

In the case of `CN(C)CCCN1c2ccccc2CCc2ccc(Cl)cc21` [Clomipramine], the inhibition at 30 mg/kg was 8%.
As for `CN(C)CC/C=C1\c2ccccc2CSc2ccccc21` [Dothiepin], the inhibition at 30 mg/kg under setting [1] amounted to 9%.
Regarding `CN(C)CCCN1c2ccccc2CCc2ccccc21` [Imipramine], the inhibition at 30 mg/kg stood at 18%.
Turning to `CN(C)CCC=C1c2ccccc2CSc2ccc(C#N)cc21` [Product of Example 1, 11-(3-dimethylaminopropylidene)-6,11-dihydrodibenzo(b,e)thiepin-2-carbonitrile hydrobromide], the inhibition at 30 mg/kg under setting [1] is 82%.
As for `CN(C)CCC=C1c2cc(C#N)ccc2CSc2ccccc21` [Product of Example A, 11-(3-Dimethyl-aminopropylidene)6,1i-dihydrodibenzo[b,e]thiepin-9-carbonitrile hydrobromide], the inhibition at 30 mg/kg under setting [1] came out at 0%.
